# Results reported in US20240245711A1, “A 19-NOR C3,3-DISUBSTITUTED C21-N-PYRAZOLYL STEROID FOR THE TREATMENT OF MAJOR DEPRESSIVE DISORDER” (Sage Therapeutics, Inc., priority 2021, published 2024).
# Several values for one entry are separate records, joined by “and”; a condition that tells them apart may be missing. Equal entries are not always repeated.
# System: adult subjects with Major Depressive Disorder
# Experiment: Phase 3 open-label 1-year study: HAM-D total score, response and remission
# Format: in vivo, human
# Excerpt: Secondary Objective: To assess the need for re-treatment with Compound (1) following initial treatment in adults with MDD currently experiencing an MDE over a 1-year period, and to assess the response of initial treatment and re-treatment(s) with Compound (1) following an initial 2-week treatment period in adults with MDD currently experiencing an MDE over a 1-year period.
# Secondary Endpoints: The need for re-treatment with Compound (1) as assessed by: time to first re-treatment (Kaplan-Meier curves), number of subjects achieving the requirements for re-treatment, number of re-treatment cycles for each subject, the response of initial treatment and/or re-treatment as assessed by: change from baseline in the 17-item Hamilton Rating Scale for Depression (HAM-D) total score at the end of each 14-day treatment (initial and/or re-treatment) period, HAM-D response at the end of each 14-day treatment (initial and/or re-treatment) period, defined as a ≥50% reduction in HAM-D score from baseline, HAM-D remission at the end of each 14-day treatment (initial and/or re-treatment) period, defined as HAM-D total score≤7, Clinical Global Impression-Improvement (CGI-I) response, defined as “much improved” or “very much improved”, at the end of each 14-day treatment (initial and/or re-treatment) period, change from baseline in Clinical Global Impression-Severity (CGI-S) score at the end of each 14-day treatment (initial and/or re-treatment) period.
# Study Population: Subjects were 18-75 years old, diagnosed with major depressive disorder (MDD) with a MADRS total score of ≥28 and a HAM-D total score of ≥20 at Screening and Day 1 (prior to dosing).
# Treatment Groups: The 30 mg and 50 mg dose groups were separated by time of enrollment. The study is comprised of two cohorts: one with Compound (1) 30 mg as a starting dose (30 mg Cohort: n=725), an initial cohort with Compound (1) 50 mg as a starting dose (50 mg Cohort: n=199). A patient receiving Compound (1) 30 mg could be dose reduced to 20 mg and patients receiving Compound (1) 50 mg could be dose reduced to 40 mg (based on tolerability). In all cohorts, Compound (1) is self-administered by patients as an oral therapy once nightly with food for 14 days.
# Eligible subjects were given Compound (1)—to be taken at home in the evening with meal.
# The cohorts pertaining to the different doses that the subjects received were defined as following: • 50 mg cohort: This cohort includes subjects who have initiated treatment with 50 mg and received re-treatment with 50 mg only. • 30 mg cohort: This cohort includes subjects who have initiated treatment with 30 mg regardless of the dose they have received in re-treatments. • Low dose cohort: This cohort includes subjects who have initiated treatment with 30 mg and received re-treatment with 30 mg only. • Dose switch cohort: This cohort includes subjects who have received initial treatment with 30 mg and at least one subsequent re-treatment with 50 mg. • Study Period X: starts on the date of the first dose of Compound (1) in cycle X and goes up to one day prior to the first dose of the next cycle. In some embodiments, X is any number from 1 to 5. • Treatment Period X: starts on the date of the first dose of Compound (1) in cycle X and goes up to one day after the last dose in cycle X. In some embodiments, X is any number from 1 to 5. • Treatment Cycle X: starts on the date of the first dose of Compound (1) in cycle X and goes up to 14 days after the last dose in cycle X. The treatment cycles may be denoted as C1-C5. • Observation period X: starts the day after Treatment Cycle X ends and goes up to one day prior to the start of next treatment cycle. In some embodiments, X is any number from 1 to 5.
# Analysis Sets: The safety set was defined as all subjects who were administered study drug. The period-specific safety set includes subjects in the safety set who were administered study drug in the corresponding treatment cycle. […]
# [1] = baseline HAM-D score ≥24, Study Period 1, 50 mg Cohort (N = 127), Day 28
# [2] = baseline HAM-D score ≥24, Study Period 1, 50 mg Cohort (N = 127), Day 70
# [3] = baseline HAM-D score ≥24, Study Period 1, 50 mg Cohort (N = 127), Day 126
# [4] = baseline HAM-D score ≥26, Study Period 1, 30 mg Cohort (N = 327), Day 8
# [5] = baseline HAM-D score ≥26, Study Period 1, 30 mg Cohort (N = 327), Day 15
# [6] = baseline HAM-D score ≥26, Study Period 1, 30 mg Cohort (N = 327), Day 28
# [7] = baseline HAM-D score ≥26, Study Period 1, 30 mg Cohort (N = 327), Day 70
# [8] = baseline HAM-D score ≥26, Study Period 1, 30 mg Cohort (N = 327), Day 126
# [9] = baseline HAM-D score ≥26, Study Period 1, 50 mg Cohort (N = 85), Day 8
# [10] = baseline HAM-D score ≥26, Study Period 1, 50 mg Cohort (N = 85), Day 15
# [11] = baseline HAM-D score ≥26, Study Period 1, 50 mg Cohort (N = 85), Day 28
# [12] = baseline HAM-D score ≥26, Study Period 1, 50 mg Cohort (N = 85), Day 70
# [13] = baseline HAM-D score ≥26, Study Period 1, 50 mg Cohort (N = 85), Day 126
smiles,measurement,setting,value
"C[C@@]1(O)CC[C@H]2[C@H](CC[C@@H]3[C@@H]2CC[C@]2(C)[C@@H](C(=O)Cn4cc(C#N)cn4)CC[C@@H]32)C1 [Compound (1), 1-(2-((3R,5R,8R,9R,10S,13S,14S,17S)-3-hydroxy-3,13-dimethylhexadecahydro-1H-cyclopenta[a]phenanthren-17-yl)-2-oxoethyl)-1H-pyrazole-4-carbonitrile]",HAM-D Response,[1],74/120 (61.7%)
same,"HAM-D total score, Mean % CFB ± SD",[1],−58.0 ± 25.97%
same,"HAM-D total score, Mean CFB ± SD",[1],−15.7 ± 7.17
same,HAM-D Remission,[2],26/79 (32.9%)
same,HAM-D Response,[2],43/79 (54.4%)
same,"HAM-D total score, Mean % CFB ± SD",[2],−53.0 ± 28.53%
same,"HAM-D total score, Mean CFB ± SD",[2],−14.4 ± 7.93
same,HAM-D Remission,[3],13/17 (76.5%)
same,HAM-D Response,[3],14/17 (82.4%)
same,"HAM-D total score, Mean % CFB ± SD",[3],−74.8 ± 27.94%
same,"HAM-D total score, Mean CFB ± SD",[3],−19.9 ± 8.10
same,HAM-D Response,[4],138/319 (43.3%)
same,"HAM-D total score, Mean % CFB ± SD",[4],−43.7 ± 25.84%
same,"HAM-D total score, Mean CFB ± SD",[4],−12.6 ± 7.44
same,HAM-D Response,[5],220 (71.4%) and 220/308 (71.4%)
same,"HAM-D total score, Mean % CFB ± SD",[5],−60.6 ± 26.28%
same,"HAM-D total score, Mean CFB ± SD",[5],−17.6 ± 7.77
same,HAM-D Response,[6],184/305 (60.3%)
same,"HAM-D total score, Mean % CFB ± SD",[6],−55.6 ± 28.46%
same,"HAM-D total score, Mean CFB ± SD",[6],−16.2 ± 8.48
same,HAM-D Response,[7],87/170 (51.2%)
same,"HAM-D total score, Mean % CFB ± SD",[7],−49.8 ± 32.15%
same,"HAM-D total score, Mean CFB ± SD",[7],−14.7 ± 9.65
same,HAM-D Response,[8],60/82 (73.2%)
same,"HAM-D total score, Mean % CFB ± SD",[8],−65.6 ± 28.15%
same,"HAM-D total score, Mean CFB ± SD",[8],−19.1 ± 8.11
same,HAM-D Remission,[9],13/82 (15.9%)
same,HAM-D Response,[9],43/82 (52.4%)
same,"HAM-D total score, Mean % CFB ± SD",[9],−49.6 ± 21.15%
same,"HAM-D total score, Mean CFB ± SD",[9],−14.0 ± 6.05
same,HAM-D Remission,[10],27 (33.8%) and 27/80 (33.8%)
same,HAM-D Response,[10],64 (80.0%) and 64/80 (80.0%)
same,"HAM-D total score, Mean % CFB ± SD",[10],−64.3 ± 20.17%
same,"HAM-D total score, Mean CFB ± SD",[10],−18.2 ± 5.89
same,HAM-D Remission,[11],26/80 (32.5%)
same,HAM-D Response,[11],51/80 (63.8%)
same,"HAM-D total score, Mean % CFB ± SD",[11],−58.5 ± 24.24%
same,"HAM-D total score, Mean CFB ± SD",[11],−16.6 ± 7.05
same,HAM-D Remission,[12],18/56 (32.1%)
same,HAM-D Response,[12],30/56 (53.6%)
same,"HAM-D total score, Mean % CFB ± SD",[12],−52.9 ± 28.48%
same,"HAM-D total score, Mean CFB ± SD",[12],−15.1 ± 8.23
same,HAM-D Remission,[13],8/10 (80%)
same,HAM-D Response,[13],8/10 (80%)
same,"HAM-D total score, Mean % CFB ± SD",[13],−74.2 ± 34.34%
same,"HAM-D total score, Mean CFB ± SD",[13],−21.0 ± 10.12
same,HAM-D Remission,"baseline HAM-D score ≥26, Study Period 1, Table 3: 30 mg Cohort (N = 327), Table 19 head: Low Dose Cohort (N = 327), Day 15",113 (36.7%) and 113/308 (36.7%)
same,HAM-D Remission,"baseline HAM-D score ≥26, Study Period 1, Table 19: Low Dose Cohort (N = 327), Day 8",49/319 (15.4%)
same,HAM-D Remission,"baseline HAM-D score ≥26, Study Period 1, Table 19: Low Dose Cohort (N = 327), Day 28",94/305 (30.8%)
same,HAM-D Remission,"baseline HAM-D score ≥26, Study Period 1, Table 19: Low Dose Cohort (N = 327), Day 70",43/170 (25.3%)
same,HAM-D Remission,"baseline HAM-D score ≥26, Study Period 1, Table 19: Low Dose Cohort (N = 327), Day 126",37/82 (45.1%)
